Source: ChEMBL document CHEMBL2440055, “Unusual transformation of substituted-3-formylchromones to pyrimidine analogues: synthesis and antimicrobial activities of 5-(o-hydroxyaroyl)pyrimidines” (Bioorg Med Chem Lett, 2013)
Converted amounts (≈) assume the structure as drawn. The source made the active and inactive calls. The rule behind the calls is not given here.

Legend:
[1] = tested on: Pseudomonas aeruginosa; assay: Antibacterial activity against Pseudomonas aeruginosa MTCC-741 after overnight incubation by two-fold broth dilution method; format: functional
[2] = tested on: Shigella flexneri; assay: Antibacterial activity against Shigella flexneri MTCC-1457 after overnight incubation by two-fold broth dilution method; format: functional
[3] = tested on: Escherichia coli; assay: Antibacterial activity against Escherichia coli MTCC-119 after overnight incubation by two-fold broth dilution method; format: functional
[4] = tested on: Candida tropicalis; assay: Antifungal activity against Candida tropicalis MTCC-230 after 24 to 72 hrs by broth dilution method; format: functional
[5] = tested on: Aspergillus niger; assay: Antifungal activity against Aspergillus niger MTCC-281 after 24 to 72 hrs by broth dilution method; format: functional
[6] = tested on: Geotrichum; assay: Antifungal activity against Geotrichum candidum MTCC-3993 after 24 to 72 hrs by broth dilution method; format: functional
[7] = tested on: Candida albicans; assay: Antifungal activity against Candida albicans MTCC-227 after 24 to 72 hrs by broth dilution method; format: functional
[8] = tested on: Staphylococcus aureus; conditions: MTCC-740
[9] = Cytotoxicity against human HeLa cells assessed as cell survival at 200 uM up to 24 hrs by MTT assay; format: cell-based; conditions: read-out: Survival
[10] = Cytotoxicity against human HeLa cells assessed as cell survival at 20 uM after 24 hrs by MTT assay; format: cell-based; conditions: read-out: Survival
[11] = tested on: Staphylococcus aureus; assay: Antibacterial activity against Staphylococcus aureus MTCC-740 after overnight incubation by two-fold broth dilution method

O=C(c1cncnc1)c1cc(Cl)ccc1O
MIC [1]: 96 µg/mL (≈ 409 µM) | MIC [2]: 74 µg/mL (≈ 315 µM) | MIC [3]: 68 µg/mL (≈ 290 µM) | MIC [4]: > 100 µg/mL | MIC [5]: 50 µg/mL (≈ 213 µM) | MIC [6]: 28 µg/mL (≈ 119 µM) | MIC [7]: 35 µg/mL (≈ 149 µM) | MIC [8]: inactive

O=C(c1cncnc1)c1cc(F)ccc1O
MIC [1]: > 100 µg/mL | MIC [2]: 78 µg/mL (≈ 357 µM) | MIC [3]: > 100 µg/mL | MIC [4]: 78 µg/mL (≈ 357 µM) | MIC [5]: > 100 µg/mL | MIC [6]: 35 µg/mL (≈ 160 µM) | MIC [7]: 28 µg/mL (≈ 128 µM) | MIC [8]: inactive

O=C(c1cncnc1)c1cc(F)c(Cl)cc1O
viability at 24 h, 200 µM [9]: 84% | viability at 24 h, 20 µM [10]: 98% | MIC [1]: 70 µg/mL (≈ 277 µM) | MIC [2]: 50 µg/mL (≈ 198 µM) | MIC [3]: > 100 µg/mL | MIC [4]: 46 µg/mL (≈ 182 µM) | MIC [5]: 48 µg/mL (≈ 190 µM) | MIC [6]: 15 µg/mL (≈ 59.4 µM) | MIC [7]: 46 µg/mL (≈ 182 µM) | MIC [8]: inactive

O=C(O)c1cn(C2CC2)c2cc(N3CCNCC3)c(F)cc2c1=O [CIPROFLOXACIN]
MIC [11]: 1.6 µg/mL (≈ 4.83 µM) | MIC [1]: 0.7 µg/mL (≈ 2.11 µM) | MIC [2]: 1.2 µg/mL (≈ 3.62 µM)

Cc1ccc(O)c(C(=O)c2cncnc2)c1
MIC [1]: 60 µg/mL (≈ 280 µM) | MIC [2]: 84 µg/mL (≈ 392 µM) | MIC [3]: > 100 µg/mL | MIC [4]: 54 µg/mL (≈ 252 µM) | MIC [5]: 55 µg/mL (≈ 257 µM) | MIC [6]: 40 µg/mL (≈ 187 µM) | MIC [7]: 70 µg/mL (≈ 327 µM) | MIC [8]: inactive

O=C(c1cncnc1)c1ccccc1O
MIC [1]: 66 µg/mL (≈ 330 µM) | MIC [2]: 58 µg/mL (≈ 290 µM) | MIC [3]: 64 µg/mL (≈ 320 µM) | MIC [4]: > 100 µg/mL | MIC [5]: 70 µg/mL (≈ 350 µM) | MIC [6]: 48 µg/mL (≈ 240 µM) | MIC [7]: 34 µg/mL (≈ 170 µM) | MIC [8]: inactive

OC(Cn1cncn1)(Cn1cncn1)c1ccc(F)cc1F [FLUCONAZOLE]
MIC [4]: 23 µg/mL (≈ 75.1 µM) | MIC [5]: 45 µg/mL (≈ 147 µM) | MIC [6]: 10 µg/mL (≈ 32.7 µM) | MIC [7]: 20 µg/mL (≈ 65.3 µM)
